According to patent publication US8974827B2, “Nanoparticles comprising a non-ionizable cellulosic polymer and an amphiphilic non-ionizable block copolymer” (Bend Research, Inc., priority 2007, dated 2015):
≈ marks a conversion by molar mass, not a printed value.

Tests used:
[1] = Solubility of drug in water; type: physicochemical
Protocol: The utility of the invention increases as the water solubility of the drug decreases. […] The Tg of non-crystalline Drug 1 was determined by DSC analysis to be 55° C., while the Tm of crystalline Drug 1 was 170° C.

Log P of drug = type: physicochemical; conditions: octanol/water
Source text: The first property of hydrophobic drugs is that they are extremely hydrophobic. Log P, defined as the base 10 logarithm of the ratio of the drug solubility in octanol to the drug solubility in water, is a widely accepted measure of hydrophobicity. By “extremely hydrophobic” is meant that the Log P value of the drug is at least 4.0, preferably at least 4.5, and most preferably at least 5.0. Log P may be measured experimentally or calculated using methods known in the art. When using a calculated value for Log P, the highest value calculated using any generally accepted method for calculating Log P is used. Calculated Log P values are often referred to by the calculation method, such as Clog P, Alog P, and Mlog P. The Log P may also be estimated using fragmentation methods, such as Crippen's fragmentation method (27 J. Chem. Inf. Comput. Sci. 21 (1987)); Viswanadhan's fragmentation method (29 J. Chem. Inf. Comput. Sci. 163 (1989)); or Broto's fragmentation method (19 Eur. J. Med. Chem.-Chim. Theor. 71 (1984).

[2] = Free drug analysis by centrifuge filtration (30,000-dalton cutoff) and HPLC; type: physicochemical; conditions: 30,000-dalton cutoff centrifuge filter, HPLC
Protocol: The nanoparticle suspension was centrifuged for 3 minutes at 13,000 rpm using a 30,000-dalton molecular-weight cutoff centrifuge tube filter, and 50 μL of the supernatant was added to 250 μL acetonitrile. The sample was assayed by HPLC.

[3] = Solubility in model fasted duodenal (MFD) solution; type: physicochemical; conditions: fassgf or other biorelevant, PBS containing 7.3 mM sodium taurocholic acid and 1.4 mM POPC
[4] = for Observations: pH 6.5
Protocol: An appropriate PBS solution is an aqueous solution comprising 20 mM sodium phosphate (Na2HPO4), 47 mM potassium phosphate (KH2PO4), 87 mM NaCl, and 0.2 mM KCl, adjusted to pH 6.5 with NaOH. A test to determine whether the cellulosic polymer is insoluble may be performed as follows. The cellulosic polymer is initially present in bulk powder form with average particle sizes of greater than about 1 micron. The polymer alone is administered at a concentration of 0.2 mg/mL to the PBS solution and stirred for approximately 1 hour at room temperature. Next, a nylon 0.45 μm filter is weighed, and the solution is filtered. The filter is dried overnight at 40° C., and weighed the following morning.
First, 0.2 mg/mL of the polymer was added to a PBS solution consisting of 20 mM Na2HPO4, 47 mM KH2PO4, 87 mM NaCl, and 0.2 mM KCl, adjusted to pH 6.5 with NaOH. The polymer was stirred in the PBS solution for approximately 1 hour at room temperature. Next, the polymer solution was filtered through a nylon 0.45 μm filter that was weighed dry prior to filtration. The filter was dried overnight at 40° C., and weighed the following morning. The amount of soluble polymer was calculated from the amount of polymer added to form the polymer solution minus the amount of polymer remaining on the filter.

Row | solubility [1] [µg/mL] | Observations [4] | Amount Soluble at pH 6.5 [4] [mg/mL] | also measured | Molecule
1 | ~10 (≈ 31.8 µM) |  |  | logP (Log P of drug): ~3; Free Drug [2]: 11 µg/mL | Cc1onc(-c2ccccc2)c1-c1ccc(S(N)(=O)=O)cc1 [Drug 1, 4-(5-methyl-3-phenyl-4-isoxazolyl)benzenesulfonamide]
2 | < 1 |  |  |  | CC[C@@H]1C[C@H](N(Cc2cc(C(F)(F)F)cc(C(F)(F)F)c2)C(C)=O)c2cc(C(F)(F)F)ccc2N1C(=O)OC(C)C [Drug 2, [2R,4S] 4-[acetyl-(3,5-bis-trifluoromethyl-benzyl)-amino]-2-ethyl-6-trifluoromethyl-3,4-dihydro-2H-quinoline-1-carboxylic acid isopropyl ester]
3 |  |  |  | solubility [3]: ~40 µg/mL (≈ 105 µM) | Cc1ccc(-c2cc(C(F)(F)F)nn2-c2ccc(S(N)(=O)=O)cc2)cc1 [Drug 3, celecoxib]
4 |  | Stabilizer dissolved |  | Soluble at pH 6.5 [4]: 0.2 mg/mL | Polyethylene glycol 8000 [PEG 8000]
5 |  | Fine particle suspension | <0.001 |  | ethylcellulose
6 |  | Fine particle suspension | 0.02 |  | poly(DL-lactide-co-glycolide 50:50) [PLGA]
